Experimental data: patent US20200131144A1, “AMINE OR (THIO)AMIDE CONTAINING LXR MODULATORS” (Phenex-FXR GmbH, priority 2017, published 2020)

Key:
[1] = target: T1, GST-LXRβ ligand-binding domain (Homo sapiens, UniProt P55055, INS174Q); test: TR-FRETβ activity assay (NCoA3 coactivator peptide recruitment); type: biochemical; conditions: 1 μM 24(S)-25-epoxycholesterol as prestimulating agonist; inverse agonist unless *
T1 construct: amino acids 156-461; NP009052; made in house; host or cells: E. coli
T1 sequence (P55055 with tags, fused parts or gaps INS174Q limits assumed): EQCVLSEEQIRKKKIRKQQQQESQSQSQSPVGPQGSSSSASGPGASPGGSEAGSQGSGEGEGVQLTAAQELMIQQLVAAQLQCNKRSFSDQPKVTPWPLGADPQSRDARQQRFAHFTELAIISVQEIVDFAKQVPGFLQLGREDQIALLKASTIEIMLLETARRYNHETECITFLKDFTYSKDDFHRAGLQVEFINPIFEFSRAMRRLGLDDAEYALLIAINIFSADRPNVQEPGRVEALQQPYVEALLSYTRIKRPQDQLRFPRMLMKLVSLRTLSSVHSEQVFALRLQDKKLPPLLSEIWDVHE
Experimental: The tested compounds were usually dissolved, tested and stored as 20 mM stock solutions in DMSO. […] Sulfonyl acetic acid derivatives are shelf stable as solid at rt for long time as reported by Griesbrecht et al. (Synlett 2010:374) or Faucher et al. (J. Med. Chem. 2004; 47:18). TR-FRETβ Activity Assay Recombinant GST-LXRβ ligand-binding domain (LBD; amino acids 156-461; NP009052; SEQ ID NO:4) was expressed in E. coli and purified via gluthatione-sepharose affinity chromatography. N-terminally biotinylated NCoA3 coactivator peptide (SEQ ID NO:7) was chemically synthesized (Eurogentec). […] Finally, a detection mix was added containing anti GST-Tb cryptate (CisBio; 610SAXLB) and Streptavidin-XL665 (CisBio; 610SAXLB) as fluorescent donor and acceptor, respectively, as well as the coactivator peptide and LXRβ-LBD protein (SEQ ID NO:4). The reaction was mixed thoroughly, equilibrated for 1 h at 4° C. and vicinity of LXRβ and coactivator peptide was detected by measurement of fluorescence in a VictorX4 multiplate reader (PerkinElmer Life Science) using 340 nm as excitation and 615 and 665 nm as emission wavelengths. Assays were performed in triplicates. Final Assay Concentrations of Components: 240 mM KCl, 1 μg/μL BSA, 0.002% Triton-X-100, 125 pg/μL anti GST-Tb cryptate, 2.5 ng/μL Streptavidin-XL665, coactivator peptide (400 nM), LXRP protein ([…], i.e. 76 nM).

[2] = target: T2, LXRα full length (FL) (Homo sapiens, UniProt Q13133); test: LXR Gal4 reporter transient transfection assay, mammalian two-hybrid, FL-M2H Gal4α; type: cell-based; conditions: HEK293 cells; inverse agonist unless *
T2 construct: the full length (FL) proteins of LXRα (amino acids 1-447); NP005684; expressed in transfected cells; host or cells: HEK293
T2 sequence (Q13133 1-447): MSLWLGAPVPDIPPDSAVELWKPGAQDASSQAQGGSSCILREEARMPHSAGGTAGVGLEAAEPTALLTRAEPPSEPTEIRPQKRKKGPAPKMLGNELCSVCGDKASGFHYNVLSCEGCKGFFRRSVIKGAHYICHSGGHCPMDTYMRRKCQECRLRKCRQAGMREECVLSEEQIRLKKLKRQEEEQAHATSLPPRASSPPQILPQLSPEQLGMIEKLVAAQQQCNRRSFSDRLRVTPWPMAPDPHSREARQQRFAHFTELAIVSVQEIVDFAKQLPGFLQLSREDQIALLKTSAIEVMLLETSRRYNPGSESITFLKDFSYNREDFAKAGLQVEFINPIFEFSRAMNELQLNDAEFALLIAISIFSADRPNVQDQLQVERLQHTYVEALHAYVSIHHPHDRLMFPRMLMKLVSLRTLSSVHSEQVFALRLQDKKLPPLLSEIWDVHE
Experimental: (§1) The tested compounds were usually dissolved, tested and stored as 20 mM stock solutions in DMSO. Since sulfonyl acetic acid derivatives tend to decarboxylate under these conditions, these stock solutions were prepared, tested and stored as 20 mM DMSO stock solutions containing 100 mM trifluoroacetic acid (5 equivalents). Sulfonyl acetic acid derivatives are shelf stable as solid at rt for long time as reported by Griesbrecht et al. (Synlett 2010:374) or Faucher et al. (J. Med. Chem. 2004; 47:18).
(§2) LXR Gal4 Reporter Transient Transfection Assays
(§3) LXRα and LXRβ activity status was determined via detection of interaction with coactivator and corepressor proteins in mammalian two-hybrid experiments (M2H). For this, via transient transfection the full length (FL) proteins of LXRα (amino acids 1-447; NP005684; SEQ ID NO:1) or LXRβ-(amino acids 1-461; NP009052; SEQ ID NO:2) or the ligand-binding domains (LBD) of LXRα (amino acids 155-447 SEQ ID NO:3) or LXR (amino acids 156-461; SEQ ID NO:4) were expressed from pCMV-AD (Stratagene) as fusions to the transcriptional activation domain of NFkB. As cofactors, domains of either the steroid receptor coactivator 1 (SRC1; amino acids 552-887; SEQ ID NO:5) or of the corepressor NCoR (amino acids 1906-2312; NP006302; SEQ ID NO:6) were expressed as fusions to the DNA binding domain of the yeast transcription factor GAL4 (from pCMV-BD; Stratagene). Interaction was monitored via activation of a coexpressed Firefly Luciferase Reporter gene under control of a promoter containing repetitive GAL4 response elements (vector pFRLuc; Stratagene). Transfection efficiency was controlled via cotransfection of constitutively active pRL-CMV Renilla reniformis luciferase reporter (Promega). HEK293 cells were grown in minimum essential medium (MEM) with 2 mM L-glutamine and Earle's balanced salt solution supplemented with 8.3% fetal bovine serum, 0.1 mM non-essential amino acids, 1 mM sodium pyruvate, at 37° C. in 5% CO2. 3.5×10^4 cells/well were plated in 96-well cell culture plates in growth medium supplemented with 8.3% fetal bovine serum for 16-20 h to—90% confluency. For transfection, medium was taken off and LXR and cofactor expressing plasmids as well as the reporter plasmids are added in 30 μL OPTIMEM/well including polyethylene-imine (PEI) as vehicle. Typical amounts of plasmids transfected/well: pCMV-AD-LXR (5 ng), pCMV-BD-cofactor (5 ng), pFR-Luc (100 ng), pRL-CMV (0.5 ng). Compound stocks were prepared in DMSO, prediluted in MEM to a total volume of 120 μL, and added 4 h after addition of the transfection mixture (final vehicle concentration not exceeding 0.2%). Cells were incubated for additional 16 h, lysed for 10 min in 1×Passive Lysis Buffer (Promega) and Firefly and Renilla luciferase activities were measured sequentially in the same cell extract using buffers containing D-luciferine and coelenterazine, respectively. Measurements of luminescence were done in a BMG-luminometer.

[3] = target: T3, LXRβ full length (FL) (Homo sapiens, UniProt P55055, INS174Q); test: LXR Gal4 reporter transient transfection assay, mammalian two-hybrid, FL-M2H Gal4β; type: cell-based; conditions: HEK293 cells; inverse agonist unless *
T3 construct: the full length (FL) proteins of LXRα (amino acids 1-447); NP005684; NP009052; expressed in transfected cells; host or cells: HEK293
T3 sequence (P55055 with tags, fused parts or gaps INS174Q): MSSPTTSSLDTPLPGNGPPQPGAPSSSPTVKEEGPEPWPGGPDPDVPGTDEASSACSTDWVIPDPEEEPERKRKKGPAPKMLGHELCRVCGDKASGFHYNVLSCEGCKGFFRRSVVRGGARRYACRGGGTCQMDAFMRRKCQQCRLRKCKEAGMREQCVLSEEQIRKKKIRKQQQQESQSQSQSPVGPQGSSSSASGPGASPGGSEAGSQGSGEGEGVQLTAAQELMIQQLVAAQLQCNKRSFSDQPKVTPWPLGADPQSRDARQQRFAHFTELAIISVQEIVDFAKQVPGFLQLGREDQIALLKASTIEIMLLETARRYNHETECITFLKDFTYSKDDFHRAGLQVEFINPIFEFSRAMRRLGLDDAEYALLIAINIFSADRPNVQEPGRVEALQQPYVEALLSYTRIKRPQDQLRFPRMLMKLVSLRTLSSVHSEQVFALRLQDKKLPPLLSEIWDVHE
Experimental: as §1, §2, §3

| SMILES | EC50 [1] [µM] | EC50 [2] [µM] | EC50 [3] [µM] |
| --- | --- | --- | --- |
| COc1cc(-c2cccc(S(=O)(=O)CC(=O)O)c2)ccc1CN(Cc1ccc(C(F)(F)F)o1)Cc1c(C)cc(C)cc1C [15/2] | 1 to 10 | – | 1 to 10 |
| Cc1nc(C)c(CN(Cc2ccc(-c3cc(F)c(CO)c(S(=O)(=O)CC(=O)O)c3)cc2)Cc2ccc(C(F)(F)F)o2)c(C)n1 [22/6] | 1 to 10 | – | 1 to 10 |
| Cc1ccc2ccccc2c1C(=O)N(Cc1ccc(-c2cccc(C(C)(C)C(=O)O)c2)cc1)Cc1ccc(C(=O)O)o1 [27/29] | – | 1 to 10 | 1 to 10 |
| O=C(O)CS(=O)(=O)c1cccc(-c2ccc(CN(Cc3ccc(C(F)(F)F)o3)C3CCc4cccc5cccc3c45)cc2)c1 (centres unmarked) [27/40] | > 10 | – | 1 to 10 |
| Cc1cc(C)c(CN(Cc2ccc(-c3cccc(S(=O)(=O)CC(=O)O)c3)cc2)C(=O)c2ccc(C(F)(F)F)o2)c(C)c1 [27/57] | > 10 | – | – |
| Cc1ccc2ccccc2c1C(=O)N(Cc1ccc(C(F)(F)F)o1)Cc1ccc(-c2cncc(C(C)(C)C(=O)O)c2)cc1C(F)F [27/63] | 0.1 to 1 | – | – |
| Cc1cc(C)c(CN(Cc2ccc(-c3cccc(S(=O)(=O)CC(=O)NS(=O)(=O)N(C)C)c3)cc2)Cc2ccc(C(F)(F)F)o2)c(C)c1 [Example 2/1] | > 10 | – | – |
| Cc1cc(C)c(CC(=O)N(Cc2ccc(-c3cccc(S(=O)(=O)CC(=O)O)c3)cc2)Cc2ccc(C(F)(F)F)o2)c(C)c1 [Example 9/1] | – | – | 1 to 10 |
| Cc1cc(C)c(CN(Cc2ccc(-c3ccc(CO)c(S(=O)(=O)CC(=O)O)c3)cc2)Cc2ccc(C(F)(F)F)o2)c(C)c1 [Example 12, 2-((4-(Hydroxvmethyl)-4′-((((5-(trifluoromethyl)furan-2-yl)methyl)(2,4,6-trimethyl-benzyl)amino)methyl)-[1,1′-biphenyl]-3-yl)sulfonyl)acetic acid] | 1 to 10 | – | – |
| Cc1ccc2ccccc2c1C(=O)N(Cc1ccc(-c2cccc(S(=O)(=O)CC(=O)O)c2)cc1)Cc1ccc(C(N)=O)o1 [Example 16, 2-((4′-((N-((5-Carbamoylfuran-2-yl)methyl)-2-methyl-1-naphthamido)methyl)-[1,1′-biphenyl]-3-yl)sulfonyl)acetic acid] | – | – | 1 to 10 |
| Cc1ccc2ccccc2c1CN(Cc1ccc(C(F)(F)F)o1)Cc1ccc(-c2cccc(S(=O)(=O)CC(=O)O)c2)c2nccn12 [Example 27, 2-((3-(5-((((2-Methylnaphthalen-1-yl)methyl)((5-(trifluoromethyl)furan-2-yl)methyl)amino)methyl)imidazo[1,2-a]pyridin-8-yl)phenyl)sulfonyl)acetic acid] | > 10 | – | – |

Now from value to compound:

| EC50 [1] [µM] | EC50 [2] [µM] | EC50 [3] [µM] | SMILES |
| --- | --- | --- | --- |
| < 0.1 | 0.1 to 1 | < 0.1 | Cc1cc(C)c(CN(Cc2ccc(-c3cccc(S(=O)(=O)CC(=O)N(C)O)c3)cc2)Cc2ccc(C(F)(F)F)o2)c(C)c1 [5/2] |
| 0.1 to 1 | 1 to 10 | 1 to 10 | Cc1ccc2ccccc2c1C(=O)N(Cc1ccc(-c2cccc(S(=O)(=O)CC(=O)NS(C)(=O)=O)c2)cc1)Cc1ccc(C(F)(F)F)o1 [5/4] |
| > 10 | – | 1 to 10 | Cc1cc(C)c(CCN(Cc2ccc(-c3cccc(S(=O)(=O)CC(=O)O)c3)cc2)Cc2ccc(C(F)(F)F)o2)c(C)c1 [7/8] |
| – | – | 1 to 10 | O=C(O)CS(=O)(=O)c1cccc(-c2ccc(CN(Cc3ccccc3)Cc3ccc(C(F)(F)F)o3)cc2)c1 [7/11] |
| > 10 | – | 0.1 to 1 | Cc1cc(C)c(CN(Cc2ccc(C(F)(F)F)o2)Cc2sc(-c3cccc(S(=O)(=O)CC(=O)O)c3)cc2Cl)c(C)c1 [15/4] |
| – | 1 to 10 | 0.1 to 1 | COc1cc(-c2cc(F)c(CO)c(S(=O)(=O)CC(=O)O)c2)cnc1CN(Cc1ccc(C(F)(F)F)o1)Cc1c(C)ccc2ccccc12 [22/3] |
| – | < 0.1 | < 0.1 | CC1CCc2ccccc2N1C(=O)N(Cc1ccc(-c2cccc(C(C)(C)C(=O)O)c2)cc1)Cc1ccc(C(F)(F)F)o1 (centres unmarked) [27/96] |
| – | < 0.1 | < 0.1 | COc1ccc2nc(C)c(C)c(C(=O)N(Cc3ccc(-c4cccc(C(C)(C)C(=O)O)c4)cc3)Cc3ccc(C(F)(F)F)o3)c2n1 [27/134] |
| – | – | 0.1 to 1 | CC(C)(C(=O)O)c1cccc(-c2ccc(CN(Cc3ccc(C(F)(F)F)o3)C(CF)c3cccc4ccccc34)cc2)c1 (centres unmarked) [Example 18, 2-(4′-(((2-Fluoro-1-(naphthalen-1-yl)ethyl)((5-(trifluoromethyl)furan-2-yl)methyl)amino)methyl)-[1,1′-biphenyl]-3-yl)-2-methylpropanoic acid] |
| 1 to 10 | – | 0.1 to 1 | Cc1cc(C)c(CN(Cc2ccc(-c3cc(F)c(CF)c(S(=O)(=O)CC(=O)O)c3)cc2)Cc2ccc(C(F)(F)F)o2)c(C)c1 [Example 20, 2-((5-Fluoro-4-(fluoromethyl)-4′-((((5-(trifluoromethyl)furan-2-yl)methyl)(2,4,6-trimethyl-benzyl)amino)methyl)-[1,1′-biphenyl]-3-yl)sulfonyl)acetic acid] |
